This note sets out measurements from US9408871B2, “Methods for inhibiting complement activation and uses thereof” (THE UNIVERSITY OF BRITISH COLUMBIA, priority 2013, dated 2016).

This assay deals with TP complement components (C5b,6, C7, C8, C9). The assay is described as follows: terminal pathway hemolytic assay using purified complement components. Particulars: cRBC, purified C5b,6, C7, C8, C9. The class given is cell-based, human. The procedure: For serum-based terminal pathway (TP) hemolytic assays, components were diluted in GVB containing 10 mM EDTA (GVB-E), the latter added to prevent upstream complement activation and generation of endogenous C5b,6. 2% NHS was used as the source of C7, C8, and C9, and hemolysis of chicken erythrocytes (cRBC) (3.3×10^8 cells/mL) was initiated by addition of exogenous purified C5b,6, the concentration of which was determined from pilot studies to yield ˜70-80% lysis at 30 min. No C5b,6 activity was detected in the NHS prior to initiating the reaction. For some experiments, instead of NHS, purified terminal pathway complement components were used in the TP assays. In these assays, in a final volume of 300 uL GVB, lysis was achieved by the sequential addition of the following components: cRBC (3.3×10^8 cells/mL), C5b,6 (20 μM), C7 (15 nM), C8 (10 nM), and C9 (25 nM). The unlysed cell pellet was removed by centrifugation and lysis was measured immediately after the 30-minute reaction. […]
A standard curve for the terminal pathway assay using purified complement components (FIG. 3) was generated using C7 (15 nM), C8 (10 nM), and C9 (25 nM) in excess, and hemolysis of chicken erythrocytes after 30 min at 37° C. was determined as dependent on the concentration of purified C5b,6. […]

Take `O=P(O)(O)O` [P1, Orthophosphate]: the “effect on erythrocyte lysis, purified TP components” value is reported as “had no effect”.
